What is called IC50 is the concentration that inhibits the measured activity by half.

Where a SMILES comes first, the peptide text is derived from it. [ ]: non-standard residue; d: D form. The star is where a group is joined. Nle(5,6-dioxo,6-NHMe) = CNC(=O)C(=O)CC[C@H](N)C(=O)O; Tic = O=C(O)[C@@H]1Cc2ccccc2CN1; X8 = CC1(C)CC(CC(=O)*)C(=O)O1

The target of this experiment is T1, recombinant human tissue transglutaminase (rhTG2) (Homo sapiens, UniProt P21980).
T1 construct: purchased Zedira 1022 (so in the source); T022)
T1 sequence (P21980 1-687): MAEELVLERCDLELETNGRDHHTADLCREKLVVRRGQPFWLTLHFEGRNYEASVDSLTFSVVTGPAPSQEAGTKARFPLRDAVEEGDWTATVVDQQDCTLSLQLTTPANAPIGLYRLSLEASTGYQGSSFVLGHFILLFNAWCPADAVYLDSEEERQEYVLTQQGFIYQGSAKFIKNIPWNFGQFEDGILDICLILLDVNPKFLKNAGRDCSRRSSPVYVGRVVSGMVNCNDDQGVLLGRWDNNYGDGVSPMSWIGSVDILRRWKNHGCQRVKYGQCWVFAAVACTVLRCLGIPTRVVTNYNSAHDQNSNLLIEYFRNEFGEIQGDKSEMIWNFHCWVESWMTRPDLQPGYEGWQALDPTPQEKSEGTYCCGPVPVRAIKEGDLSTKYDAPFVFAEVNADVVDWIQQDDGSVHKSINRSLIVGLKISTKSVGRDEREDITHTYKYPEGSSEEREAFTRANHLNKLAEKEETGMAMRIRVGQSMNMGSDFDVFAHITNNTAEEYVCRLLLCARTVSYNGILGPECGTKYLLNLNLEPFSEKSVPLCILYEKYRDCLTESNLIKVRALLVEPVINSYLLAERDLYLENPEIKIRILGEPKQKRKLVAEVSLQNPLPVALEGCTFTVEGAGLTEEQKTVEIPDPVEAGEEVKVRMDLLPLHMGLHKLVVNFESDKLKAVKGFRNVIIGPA
Briefly: Inhibition of rec. human tissue transglutaminase (fluorescence, Abz-APE(CAD-DNP)QEA-OH). The format is biochemical. Conditions: Table 2, TG2 inhibitors. As to the method:
Method for Inhibition Studies of Rec. Human Tissue Transglutaminase (rhTG2)
250 μg lyophilized His-tagged recombinant human tissue transglutaminase (His6-rhTG2, Zedira product 1022) is reconstituted in H2O (volume depends on original volume before lyophilization) resulting in a buffer containing 10 mM Tris-HCl, 150 mM NaCl, 1 mM EDTA, 5 mM DTT, 189 mg/ml maltodextrin, pH=8.1. The rhTG2 stock solution is diluted in buffer (50 mM Tris-HCl, 7.5 mM CaCl2, 150 mM NaCl, pH=7.4) to give a working solution of 100 U/ml (based on the amine-incorporation activity measured using T036, described below).
A 10 mM inhibitor stock solution is prepared in DMSO, and from this stock solution a serial 1:2-fold dilution series is prepared, also in DMSO. Each of these initial dilutions is subsequently diluted 1:50-fold with buffer (50 mM Tris-HCl, 7.5 mM CaCl2, 150 mM NaCl, pH=7.4) to yield the final working dilutions containing 2% (v/v) DMSO. 15 μl of inhibitor working dilution are added per well of a 96 well microtiter plate. As control, 15 μl of a 2% (v/v) DMSO solution prepared using the buffer mentioned above are added per well.
600 μl of His6-rhTG2 working solution are added to 11.4 ml assay buffer (50 mM Iris-HCl, 7.5 mM CaCl2, 150 mM NaCl, 5 mM DTI, 13.4 mM glycine methylester, 50 μM Abz-APE(CAD-DNP)QEA-OH, (Zedira product A102; patent No.: EP 1781807B1), pH=7.4). From this master-mix solution, 285 μl are added per well containing the inhibitor. Increase in fluorescence is measured using λex=313 nm and λem=418 nm at 37° C. for 20 min. A slope of the increase in fluorescence between 10 and 20 min is calculated for determination of the IC50 value (inhibitor concentration at which 50% of the initial TG2 activity is blocked).
Analysis of enzymatic activity is performed by calculation of the slope of an increase in fluorescence intensity. IC50 values are calculated by plotting the enzymatic activity (as percentage from control containing 2% DMSO instead of inhibitor) against the inhibitor concentration. IC50 is defined as the inhibitor concentration blocking 50%) of initial enzyme activity.
With `CCC(CC)CNC(=O)Cn1cccc(NC(=O)[C@H](CCC(=O)C(=O)NC)NS(=O)(=O)c2sc(C)nc2C)c1=O` [Compound E66, (S)-2-(2,4-dimethylthiazole-5-sulfonamido)-N1-(1-(2-(2-ethylbutylamino)-2-oxoethyl)-26 oxo-1,2-dihydropyridin-3-yl)-N6-methyl-5-oxohexanediamide], the IC50 is 120 nM.

`CCCCCNC(=O)C(=O)CC[C@H](NC(=O)c1cncn1C)C(=O)Nc1cccn(CC(=O)NCC(CC)CC)c1=O` [Compound E18, (S)—N1-(1-(2-(2-ethylbutylamino)-2-oxoethyl)-2-oxo-1,2-dihydropyridin-3-yl)-2-(1-methyl-1H-imidazole-5-carboxamido)-5-oxo-N6-pentylnexanediamide]: the IC50 came out at 125 nM.

For the compound `CCC(CC)CNC(=O)Cn1cccc(NC(=O)[C@H](CCC(=O)C(=O)NC)NC(=O)C2CCN(C)CC2)c1=O` [Compound E63, (S)—N1-(1-(2-(2-ethylbutylamino)-2-oxoethyl)-2-oxo-1,2-dihydropyridin-3-yl)-N6-methyl-2-(1-methylpiperidine-4-carboxamido)-5-oxohexanediamide], the IC50 stood at 80 nM.

For the compound `CCC(CC)CNC(=O)Cn1cccc(NC(=O)[C@H](CCC(=O)C(=O)NC)NC(=O)c2ccoc2)c1=O` [Compound E61, (S)—N1-(1-(2-(2-ethylbutylamino)-2-oxoethyl)-2-oxo-1,2-dihydropyridin-3-yl)-2-(furan-3-carboxamido)-N6-methyl-5-oxohexanediamide], the IC50 was 80 nM.

As to `CCC(CC)CNC(=O)Cn1cccc(NC(=O)[C@H](CCC(=O)C(=O)c2ccccc2)NC(=O)c2cncn2C)c1=O` [Compound E76, (S)—N-(1-(1-(2-(2-ethylbutylamino)-2-oxoethyl)-2-oxo-1,2-dihydropyridin-3-ylamino)-1,5,6-trioxo-6-phenylhexan-2-yl)-1-methyl-1H-imidazole-5-carboxamide], the IC50 stood at 550 nM.

On to `CCC(CC)CNC(=O)Cn1cccc(NC(=O)[C@H](CCC(=O)C(=O)NCOC)NC(=O)c2cncn2C)c1=O` [Compound E39, (S)—N1-(1-(2-(2-ethylbutylamino)-2-oxoethyl)-2-oxo-1,2-dihydropyridin-3-yl)-N6-(methoxymethyl)-2-(1-methyl-1H-imidazole-5-carboxamido)-5-oxohexanediamide], for which the IC50 came out at 135 nM.

With `CCC(CC)CNC(=O)Cn1cccc(NC(=O)[C@H](CCC(=O)C(=O)NOCC2CCCC2)NC(=O)c2cncn2C)c1=O` [Compound E79, (S)—N1-(cyclopentylmethoxy)-N6-(1-(2-(2-ethylbutylamino)-2-oxoethyl)-2-oxo-1,2-di-hydropyridin-3-yl)-5-(1-methyl-1H-imidazole-5-carboxamido)-2-oxohexanediamide], the IC50 was 530 nM.

Take `CNC(=O)C(=O)CC[C@H](NC(=O)CC1CC(C)(C)OC1=O)C(=O)N[C@@H](Cc1c[nH]cn1)C(=O)N[C@@H](Cc1ccc(O)cc1)C(=O)N1Cc2ccccc2C[C@H]1C(N)=O` (stereo partly drawn) [Compound E82, (2S)-N1-((S)-1-((S)-1-((S)-3-carbamoyl-3,4-dihydroisoquinolin-2(1H)-yl)-3-(4-hydroxy-phenyl)-1-oxopropan-2-ylamino)-3-(1H-imidazol-4-yl)-1-oxopropan-2-yl)-2-(2-(5,5-dimethyl-2-oxotetrahydrofuran-3-yl)acetamido)-N6-methyl-5-oxohexanediamide] (X8-[Nle(5,6-dioxo,6-NHMe)]HY[Tic]-NH2): the IC50 turned out to be 1350 nM.

For `CCC(CC)CNC(=O)Cn1ccc(C)c(NC(=O)[C@H](CCC(=O)C(=O)NC)NC(=O)c2cncn2C)c1=O` [Compound E42, (S)—N1-(1-(2-(2-ethylbutylamino)-2-oxoethyl)-4-methyl-2-oxo-1,2-dihydropyridin-3-yl)-N6-methyl-2-(1-methyl-1H-imidazole-5-carboxamido)-5-oxohexanediamide], the IC50 is 1600 nM.

In the case of `CCC(CC)CNC(=O)Cn1cccc(NC(=O)[C@H](CCC(=O)C(=O)NC)NC(=O)[C@@H]2CC(=O)CN2)c1=O` [Compound E60, (S)—N1-(1-(2-(2-ethylbutylamino)-2-oxoethyl)-2-oxo-1,2-dihydropyridin-3-yl)-N6-methyl-5-oxo-2-((S)-4-oxopyrrolidine-2-carboxamido)hexanediamide], the IC50 turned out to be 60 nM.

As to `CCC(CC)CNC(=O)Cn1cccc(NC(=O)[C@H](CCC(=O)C(N)=O)NC(=O)c2scnc2C)c1=O` [Compound E14, (S)—N1-(1-(2-(2-ethylbutylamino)-2-oxoethyl)-2-oxo-1,2-dihydropyridin-3-yl)-2-(4-methylthiazole-5-carboxamido)-5-oxohexanediamide], the IC50 is 250 nM.

Consider `CCOC(=O)Cn1cccc(NC(=O)[C@H](CCC(=O)C(=O)NC)NC(=O)c2cncn2C)c1=O` [Compound E52, (S)-ethyl 2-(3-(2-(1-methyl-1H-imidazole-5-carboxamido)-6-(methylamino)-5,6-dioxohexanamido)-2-oxopyridin-1(2H)-yl)acetate], for which the IC50 stood at 500 nM.

For `CCC(CC)CNC(=O)Cn1cccc(NC(=O)[C@H](CCC(=O)C(=O)NCC(=O)OC)NC(=O)c2cncn2C)c1=O` [Compound E38, (S)-methyl 2-(6-(1-(2-(2-ethylbutylamino)-2-oxoethyl)-2-oxo-1,2-dihydropyridin-3-ylamino)-5-(1-methyl-1H-imidazole-5-carboxamido)-2,6-dioxohexanamido)acetat], the IC50 was 700 nM.

In the case of `CNC(=O)C(=O)CC[C@H](NC(=O)Cc1cc(C)nn1C)C(=O)Nc1cccc(C(=O)N[C@@H](Cc2ccc(-c3ccccc3)cc2)C(=O)N2C[C@H](Oc3ccccc3)C[C@H]2C(N)=O)c1` [Compound E83, (S)—N1-(3-((S)-3-(biphenyl-4-yl)-1-((2S,4R)-2-carbamoyl-4-phenoxypyrrolidin-1-yl)-1-oxopropan-2-ylcarbamoyl)phenyl)-2-(2-(1,3-dimethyl-1H-pyrazol-5-yl)acetamido)-N6-methyl-5-oxohexanediamide], the IC50 was 2000 nM.

`CCC(CC)CNC(=O)Cn1cccc(NC(=O)[C@H](CCC(=O)C(N)=O)NC(=O)c2ccccc2)c1=O` [Compound E12, (S)-2-benzamido-N1-(1-(2-(2-ethylbutylamino)-2-oxoethyl)-2-oxo-1,2-dihydropyridin-3-yl)-5-oxonexanediamide]: the IC50 was 950 nM.

As for `CCC(CC)CNC(=O)Cn1cccc(NC(=O)[C@H](CCC(=O)C(=O)Nc2cncs2)NC(=O)c2cncn2C)c1=O` [Compound E40, (S)—N1-(1-(2-(2-ethylbutylamino)-2-oxoethyl)-2-oxo-1,2-dihydropyridin-3-yl)-2-(1-methyl-1H-imidazole-5-carboxamido)-5-oxo-N6-(thiazol-5-yl)hexanediamide], the IC50 stood at 500 nM.

As for `CCS(=O)(=O)NC(=O)Cn1cccc(NC(=O)[C@H](CCC(=O)C(=O)NC)NC(=O)c2cncn2C)c1=O` [Compound E56, (S)—N1-(1-(2-(ethylsulfonamido)-2-oxoethyl)-2-oxo-1,2-dihydropyridin-3-yl)-N6-methyl-2-(1-methyl-1H-imidazole-5-carboxamido)-5-oxohexanediamide], the IC50 stood at 850 nM.

In the case of `CCC(CC)CNC(=O)Cn1cccc(NC(=O)[C@H](CCC(=O)C(=O)NC)NC(=O)c2cnco2)c1=O` [Compound E62, (S)—N1-(1-(2-(2-ethylbutylamino)-2-oxoethyl)-2-oxo-1,2-dihydropyridin-3-yl)-N6-methyl-2-(oxazole-5-carboxamido)-5-oxohexanediamide], the IC50 worked out at 70 nM.

Values taken from US11072634B2, “Inhibitors of transglutaminases” (Zedira GmbH, priority 2016, dated 2021).
